Marks after values point to notes of the source that are not given here.
How the values were obtained:
[1] = tested on: MIA-induced osteoarthritis pain; assay: MIA-induced osteoarthritis model, grip force test; format: in vivo, rat; details: for % GFR [mean]: rat MIA, grip force, oral 3 mg/kg
Description: Osteoarthritis Pain: To assess the actions of a Compound of Formula (I) for the treatment or prevention of osteoarthritis pain, the rat monosodium iodo-acetate (MIA, i.e., sodium 2-iodoacetate) induced osteoarthritis model was used. Intra-articular injection of MIA causes joint degeneration characterized by osteolysis and swelling, with displacement of the patella, and reductions in bone mineral content and bone mineral density (Pomonis et al., “Development and pharmacological characterization of a rat model of osteoarthritis pain,” Pain 114: 339-346 (2005)). Under isoflurane anaesthesia, an intra-articular injection of 2 mg of MIA (Sigma-Aldrich) in 50 μl of saline was administered through the infrapatellar ligament of the knee joint of the right hind leg of the male, 6 week old Crl:CD(SD) rats. Control rats received an intra-articular injection of 50 μl of saline into the knee joint of the right hind leg. The left knee joint of all rats was untreated. Two weeks after MIA injection, rats were assessed for osteoarthritis pain related-behaviors immediately prior to and 1, 3, 5, 7, and 24 hours after oral drug-in-vehicle administration (for day 1) by determining their weight-bearing capabilities, via the weight bearing difference (WBD) test, and their gripping capabilities, via the grip force test, each as described below. Thus, in the assessment for osteoarthritis pain relief through gripping capability determinations, the 24 hour time point was the start of the next day when drug-in-vehicle was again orally administered (24 hours after the prior administration) for certain dosages. On days 2, 3, and 4, gripping capability response was determined 3 and 24 hours thereafter.
The grip force (GF) of the hind legs was assessed using a Animal Grip Strength System (San Diego Instruments, San Diego, Calif.). Rats were gently restrained and allowed to grasp the wire mesh strain gauge with their hind legs. The animals were then moved in a rostral-caudal direction until they let go of the gauge. The force (in g) at which the rat let go was recorded. Each animal was tested twice at approximately 3-10 minute intervals at each time point and the average of the two readings was used for the GF in data analysis.
Grip force, normalized to account for the weight of each animal, was expressed as “GF/B”, i.e., the ratio of GF to body weight, where GF is the grip force in grams and B is the body weight of the animal in kg. The “% GFR”, i.e., the percentage reversal of the (normalized) grip force impediment occurring post-MIA injection, was determined for each dosage at each time point using the following formula:
[formula] where (GF/B)Drug is the GF/B determined at each post-oral-administration time-point for each dose of each substance administered to MIA-injected animals, (GF/B)Vehicle is the GF/B determined at each post-oral-administration time-point for the vehicle control administered to MIA-injected animals, and (GF/B)Control Rat is the GF/B determined for control rats (saline-injected animals receiving orally-administered vehicle only). With the exception of the controls (i.e., celecoxib, vehicle) where the student's t-test was used, Dunnett's test was conducted for the % GFR. In either instance, values with p <0.05 were considered to be statistically significant.

[2] = tested on: MIA-induced osteoarthritis pain; assay: MIA-induced osteoarthritis model, weight bearing difference (WBD) test; format: in vivo; details: rat MIA, oral 3 mg/kg
Description: Osteoarthritis Pain: To assess the actions of a Compound of Formula (I) for the treatment or prevention of osteoarthritis pain, the rat monosodium iodo-acetate (MIA, i.e., sodium 2-iodoacetate) induced osteoarthritis model was used. Intra-articular injection of MIA causes joint degeneration characterized by osteolysis and swelling, with displacement of the patella, and reductions in bone mineral content and bone mineral density (Pomonis et al., “Development and pharmacological characterization of a rat model of osteoarthritis pain,” Pain 114: 339-346 (2005)). Under isoflurane anaesthesia, an intra-articular injection of 2 mg of MIA (Sigma-Aldrich) in 50 μl of saline was administered through the infrapatellar ligament of the knee joint of the right hind leg of the male, 6 week old Crl:CD(SD) rats. Control rats received an intra-articular injection of 50 μl of saline into the knee joint of the right hind leg. The left knee joint of all rats was untreated. […] Thus, in the assessment for osteoarthritis pain relief through gripping capability determinations, the 24 hour time point was the start of the next day when drug-in-vehicle was again orally administered (24 hours after the prior administration) for certain dosages. […] Weight Bearing Difference Test as an Assessment of Osteoarthritis Related Pain: The weight bearing difference test provides an accepted assessment of the efficacy of clinically useful analgesic drugs with respect of osteoarthritis related pain (see Pomonis et al. (2005)). WBD was assessed using a Linton Incapacitance Tester (Linton Instrumentation, Norfolk, UK). Rats were placed on the apparatus so that they were standing on their hind legs, and allowed to acclimate to the apparatus. When stationary, the weight born on each leg was measured over a 3s period. Three readings were taken for each rat at each time point; the average of the three readings was used for data analysis. WBD was expressed as “% WR”, i.e., the percentage of weight born on the MIA-injected right hind leg, using the following formula: [formula] where WR is the weight on the right hind leg and WL is the weight on the left (untreated) hind leg. […] The “% WRR”, i.e., the percentage reversal of the % WR impediment occurring post-MIA injection, was determined for each dosage at each time point using the following formula: [formula] where (% WR)Post-Drug is the % WR determined at each post-oral-administration time-point for each dose of each administered substance, (% WR)Pre-Drug is the % WR determined pre-oral-administration of each administered substance, and (% WR)Control Rat is the % WR determined for control rats (receiving the saline injection into the right hind leg knee joint). With the exception of the controls (i.e., celecoxib, vehicle) where the student's t-test was used, Dunnett's test was conducted for the % WRR.

[3] = tested on: neuropathic mechanical hyperalgesia after partial sciatic nerve ligation; assay: Seltzer model (partial sciatic nerve ligation) of neuropathic pain, paw withdrawal threshold; format: in vivo, rat; details: for % Reversal [mean ± SEM]: rat
Description: In the Seltzer model, the partial sciatic nerve ligation model of neuropathic pain was used to produce neuropathic hyperalgesia in rats (Seltzer et al., “A Novel Behavioral Model of Neuropathic Pain Disorders Produced in Rats by Partial Sciatic Nerve Injury,” Pain 43:205-218 (1990)). Partial ligation of the left sciatic nerve was performed under isoflurane/O2 inhalation anaesthesia. Following induction of anesthesia, the left thigh of the male, 6-7 week old Jcl:SD rat was shaved. The sciatic nerve was exposed at high thigh level through a small incision and was carefully cleared of surrounding connective tissues at a site near the trocanther just distal to the point at which the posterior biceps semitendinosus nerve branches off of the common sciatic nerve. A 7-0 silk suture was inserted into the nerve with a ⅜ curved, reversed-cutting mini-needle and tightly ligated so that the dorsal ⅓ to ½ of the nerve thickness was held within the ligature. The wound was closed with a single muscle suture (4-0 nylon (Vicryl)) and vetbond tissue glue. The wound area was then dusted with antibiotic powder. Sham treatment involved an identical surgical procedure except that the sciatic nerve was not manipulated or ligated.
Following surgery, animals were weighed and placed on a warm pad until they recovered from anesthesia. Animals were then returned to their home cages until behavioral testing began. The animal was assessed for response to noxious mechanical stimuli by determining PWT for the rear paw of the animal, as described below, prior to surgery (baseline), then immediately prior to and 1, 3, 5, 7, and 24 hours after oral drug-in-vehicle administration (for day 1). Thus, the 24 hour time point was the start of the next day when drug-in-vehicle was again orally administered (24 hours after the prior administration). On days 2 and 3, PWT response was determined 1, 3, and 24 hours thereafter. Percentage reversal of neuropathic hyperalgesia at each of the specified times after administration was defined as: […]
Additionally, 10 mg/kg of pregabalin (Kemprotec, Ltd., Middlesbrough, UK), an anticonvulsant accepted for relief of particular neuropathic pain, in vehicle and the vehicle alone (0.5% weight/volume methylcellulose (400cP, Wako Pure Chemical Industries, Ltd.)/aqueous solution) were orally administered as controls. […] Ten rats that underwent partial ligation of the left sciatic nerve were used for each treatment group. Dunnett's test was conducted for the % reversal; values with p<0.05 were considered to be statistically significant.
Additionally, as a control the rats underwent sham surgery in which an identical surgical procedure was followed with regard to the right thigh but the sciatic nerve was neither manipulated nor ligated.
Response to Mechanical Stimuli as an Assessment of Mechanical Hyperalgesia: The paw pressure assay was used to assess mechanical hyperalgesia. […] Biochem. and Behavior 31:451-455 (1988). The maximum weight that could be applied to the hind paw was set at 250 g and the end point was taken as complete withdrawal of the paw. PWT was determined once for each rat at each time point and either only the affected (ipsilateral) paw was tested, or both the ipsilateral and contralateral (non-injured) paw were tested.

## Cc1ccc(-c2cc(C(F)(F)F)nn2-c2ccc(S(N)(=O)=O)cc2)cc1 [Celecoxib, celecoxib, reference compound]
[1]; 30.0% reversal (3 mg/kg, 3 h, day 1) as share of the 45.2% reversal of the product at 1 mg/kg
  maximum analgesic efficacy relative to the Example 10 product at 1 mg/kg: about 66.4%
[1]; 30.0% reversal (3 mg/kg, 3 h, day 1) as share of the 53.6% reversal of the product at 3 mg/kg
  maximum analgesic efficacy relative to the Example 10 product at 3 mg/kg: ~56.0%
[1]; 1 h (day 1)
  % GFR [mean]: 22.6^†† %
[1]; 3 h (day 1)
  % GFR [mean]: 30.0^†† %
[1]; 3 h (day 1), listed as celecoxib
  % GFR [mean]: 30.0%
[1]; 5 h (day 1)
  % GFR [mean]: 20.9^†† %
[1]; 7 h (day 1)
  % GFR [mean]: 3.6%
[1]; 24 h after day 1 dose (0 hrs day 2)
  % GFR [mean]: −3.6%
[2]; 1 h after administration
  % WRR [mean]: 10.2^† %
[2]; 1 h after administration, listed as celecoxib
  % WRR [mean]: 10.2%
[2]; 3 h after administration
  % WRR [mean]: 27.8^†† %
[2]; 3 h after administration, listed as celecoxib
  % WRR [mean]: 27.8%
[2]; 5 h after administration
  % WRR [mean]: 14.1^†† %
[2]; 5 h after administration, listed as celecoxib
  % WRR [mean]: 14.1%
[2]; 7 h after administration
  % WRR [mean]: 6.0^† %
[2]; 7 h after administration, listed as celecoxib
  % WRR [mean]: 6.0%
[2]; 24 h after administration
  % WRR [mean]: 2.0%

## CC(C)C[C@H](CN)CC(=O)O [pregabalin, reference compound]
[3]; 24.73% reversal (10 mg/kg, 3 h, day 1) as share of the 34.17% reversal of the product at 10 mg/kg
  maximum analgesic efficacy relative to the Example 10 product at 10 mg/kg: about 72%
[3]; pregabalin control 10 mg/kg oral once daily, 1 hours (day 2) after administration
  % Reversal [mean ± SEM]: 16.74 ± 4.23 %
[3]; pregabalin control 10 mg/kg oral once daily, 1 hours (day 3) after administration
  % Reversal [mean ± SEM]: 17.16 ± 6.64 %
[3]; pregabalin control 10 mg/kg oral once daily, 3 hours (day 2) after administration
  % Reversal [mean ± SEM]: 23.21 ± 2.30 %
[3]; pregabalin control 10 mg/kg oral once daily, 3 hours (day 3) after administration
  % Reversal [mean ± SEM]: 26.56 ± 4.95 %
[3]; pregabalin control 10 mg/kg oral once daily, 24 hours (0 hrs day 2) after administration
  % Reversal [mean ± SEM]: −2.84 ± 4.74%
[3]; pregabalin control 10 mg/kg oral once daily, 24 hours (0 hrs day 3) after administration
  % Reversal [mean ± SEM]: 1.70 ± 4.29%
[3]; pregabalin control 10 mg/kg oral once daily, 24 hours (0 hrs day 4) after administration
  % Reversal [mean ± SEM]: −3.67 ± 2.66%
[3]; pregabalin control 10 mg/kg oral, 1 hours (day 1) after administration
  % Reversal [mean ± SEM]: 24.05 ± 6.46 %
[3]; pregabalin control 10 mg/kg oral, 3 hours (day 1) after administration
  % Reversal [mean ± SEM]: 24.73 ± 4.12 %
[3]; pregabalin control 10 mg/kg oral, 5 hours (day 1) after administration
  % Reversal [mean ± SEM]: 19.97 ± 4.79 %
[3]; pregabalin control 10 mg/kg oral, 7 hours (day 1) after administration
  % Reversal [mean ± SEM]: 11.89 ± 3.16 %
[3]; rat Seltzer model, oral 10 mg/kg, 3 h after day 1 administration (maximum)
  % reversal of neuropathic hyperalgesia: 24.73%

— patent US9273043B2, “TRPV1 antagonists including dihydroxy substituent and uses thereof” (Purdue Pharma L.P., priority 2011, dated 2016)
